Target: human GABA A α5β3γ2 receptor (Homo sapiens (Human), UniProt P18507+P31644)
Assay: [3H]flumazenil competition radioligand binding assay, human GABA A α5β3γ2 receptors in HEK293 cells
Conditions: HEK293 cells expressing human receptors (transiently transfected); 0.5 nM [3H]flumazenil; means of two determinations; read-out: hKi GABA Aα5
Description: The ability of compounds present invention to bind to GABA A receptor subtypes was determined by competition for [^3H]flumazenil (85 Ci/mmol; Roche) binding to HEK293 cells expressing rat (stably transfected) or human (transiently transfected) receptors of composition α1β2/3γ2, α2β3γ2, α3β3γ2 and α5β3γ2.
Cell pellets were suspended in Krebs-tris buffer (4.8 mM KCl, 1.2 mM CaCl2, 1.2 mM MgCl2, 120 mM NaCl, 15 mM Tris; pH 7.5; binding assay buffer), homogenized by polytron for ca. 20 sec on ice and centrifuged for 60 min at 4° C. (50000 g; Sorvall, rotor: SM24=20000 rpm). The cell pellets were resuspended in Krebs-tris buffer and homogenized by polytron for ca. 15 sec on ice. Protein was measured (Bradford method, Bio-Rad) and aliquots of 1 mL were prepared and stored at −80° C.
Assays were incubated to equilibrium for 1 hour at 4° C. and harvested onto GF/C uni-filters (Packard) by filtration using a Packard harvester and washing with ice-cold wash buffer (50 mM Tris; pH 7.5). After drying, filter-retained radioactivity was detected by liquid scintillation counting.
Ki values were calculated using Excel-Fit (Microsoft) and are the means of two determinations.
Representative test results, obtained by the above described assay measuring binding affinity to HEK293 cells expressing human (h) receptors, are shown in Table 1 below.

## Cn1nnc(-c2ccc(F)cc2)c1COc1cc(C(=O)NC2CCOCC2)on1 [Example 1, 3-[5-(4-Fluoro-phenyl)-3-methyl-3H-[1,2,3]triazol-4-ylmethoxyl]isoxazole-5-carboxylic acid (tetrahydro-pyran-4-yl)-amide]
  Ki: 28.8 nM

## Cn1nc(OCc2c(-c3ccc(F)cc3)nnn2C)cc1C(=O)NC1CCOCC1 [Example 2, 5-[5-(4-Fluoro-phenyl)-3-methyl-3H-[1,2,3]triazol-4-ylmethoxy]-2-methyl-2H-pyrazole-3-carboxylic acid (tetrahydro-pyran-4-yl)-amide]
  Ki: 45.3 nM

## Cc1nnn(-c2ccc(F)cc2)c1COc1cc(C(=O)NC2CCOCC2)n(C)n1 [Example 3, 5-[3-(4-Fluoro-phenyl)-5-methyl-3H-[1,2,3]triazol-4-ylmethoxy]-2-methyl-2H-pyrazole-3-carboxylic acid (tetrahydro-pyran-4-yl)-amide]
  Ki: 15.7 nM

## Cc1nnn(-c2ccc(F)cc2)c1COc1cc(C(=O)NN2CCOCC2)n(C)n1 [Example 4, 5-[3-(4-Fluoro-phenyl)-5-methyl-3H-[1,2,3]triazol-4-ylmethoxy]-2-methyl-2H-pyrazole-3-carboxylic acid morpholin-4-ylamide]
  Ki: 22.2 nM

## Cc1nnn(-c2ccc(F)cc2)c1COc1cc(C(=O)NC2(C)COC2)n(C)n1 [Example 5, 5-[3-(4-Fluoro-phenyl)-5-methyl-3H-[1,2,3]triazol-4-ylmethoxy]-2-methyl-2H-pyrazole-3-carboxylic acid (3-methyl-oxetan-3-yl)-amide]
  Ki: 43.2 nM

## Cc1nc(/C=C/c2c(-c3ccc(F)cc3)nnn2C)sc1C(=O)NC(C)C [Example 6, 2-{(E)-2-[5-(4-Fluoro-phenyl)-3-methyl-3H-[1,2,3]triazol-4-yl]vinyl}-4-methyl-thiazole-5-carboxylic acid isopropylamide]
  Ki: 11.3 nM

## Cc1nc(/C=C/c2c(C)nnn2-c2ccc(F)cc2)sc1C(=O)NC(C)C [Example 9, 2-{(E)-2-[3-(4-Fluoro-phenyl)-5-methyl-3H-[1,2,3]triazol-4-yl]-vinyl}-4-methyl-thiazole-5-carboxylic acid isopropylamide]
  Ki: 6.8 nM

## Cc1nc(/C=C/c2c(-c3ccccn3)nnn2C)sc1C(=O)NC(C)C [Example 10, 4-Methyl-2-[(E)-2-(3-methyl-5-pyridin-2-yl-3H-[1,2,3]triazol-4-yl)-vinyl]-thiazole-5-carboxylic acid isopropylamide]
  Ki: 20.7 nM
